Laboratory results reported in the OligoGym collection.
Several values for one entry are separate records, joined by “and”; a condition that tells them apart may be missing. Equal entries are not always repeated. HELM strings list units from the 5' end as sugar, base in round brackets, then linkage (d deoxyribose, r ribose, m 2'-O-methyl, p phosphodiester). Strings are as the collection lists them, not checked against the first reports. ss, as = sense and antisense strand; [lna] = locked nucleic acid (LNA); [una] = unlocked nucleic acid; [hna] = hexitol nucleic acid; [s4r] = 4'-thioribose; [fl2r] = 2'-fluoro

details: siRNA
Also: test system not given here.

Substance	target mRNA knockdown
RNA1{r(C)p.m(U)p.r(A)p.r(G)p.r(U)p.r(C)p.r(G)p.r(A)p.m(A)p.r(A)p.r(G)p.r(A)p.m(A)p.m(A)p.r(A)p.r(C)p.r(G)p.r(G)p.r(G)p.r(T)p.r(T)}|RNA2{r(C)p.r(C)p.r(C)p.r(G)p.r(U)p.r(U)p.r(U)p.r(U)p.r(C)p.r(U)p.r(U)p.r(U)p.r(C)p.r(G)p.r(A)p.r(C)p.m(U)p.r(A)p.r(G)p.r(T)p.r(T)}$$$RNA1{StrandType:ss}|RNA2{StrandType:as}$	55%
RNA1{[s4r](A)p.[s4r](A)p.[s4r](A)p.[s4r](C)p.r(A)p.r(U)p.r(G)p.r(C)p.r(A)p.r(G)p.r(A)p.r(A)p.r(A)p.r(A)p.r(U)p.[s4r](A)p.[s4r](C)p.[s4r](C)p.[s4r](U)p.r(T)p.r(T)}|RNA2{[s4r](C)p.[s4r](A)p.r(G)p.r(C)p.r(A)p.r(U)p.r(U)p.r(U)p.r(U)p.r(C)p.r(U)p.r(G)p.r(C)p.r(A)p.r(U)p.r(G)p.r(U)p.[s4r](U)p.[s4r](U)p.r(T)p.r(T)}$$$RNA1{StrandType:ss}|RNA2{StrandType:as}$	80.8%
RNA1{m(U)p.r(C)p.m(C)p.r(C)p.m(U)p.r(U)p.m(C)p.r(C)p.m(A)p.r(C)p.m(C)p.r(G)p.m(C)p.r(C)p.m(A)p.r(U)p.m(A)p.r(U)p.m(U)p.r(T)p.r(T)}|RNA2{r(A)p.r(A)p.r(U)p.r(A)p.r(U)p.r(G)p.r(G)p.r(C)p.r(G)p.r(G)p.r(U)p.r(G)p.r(G)p.r(A)p.r(A)p.r(G)p.r(G)p.r(G)p.r(A)p.r(T)p.r(T)}$$$RNA1{StrandType:ss}|RNA2{StrandType:as}$	11%
RNA1{r(C)p.r(U)p.r(C)p.r(U)p.r(C)p.r(C)p.[fl2r](U)p.r(A)p.r(C)p.r(C)p.r(U)p.[fl2r](U)p.r(C)p.r(U)p.r(C)p.r(C)p.[fl2r](U)p.r(C)p.r(U)p.r(T)p.r(T)}|RNA2{r(A)p.r(G)p.r(A)p.r(G)p.r(G)p.r(A)p.r(G)p.r(A)p.r(A)p.r(G)p.r(G)p.[fl2r](U)p.r(A)p.r(G)p.r(G)p.r(A)p.r(G)p.r(A)p.r(G)p.r(T)p.r(T)}$$$RNA1{StrandType:ss}|RNA2{StrandType:as}$	73%
RNA1{r(C)p.r(C)p.r(G)p.r(A)p.r(G)p.r(A)p.r(G)p.m(C)p.r(U)p.r(C)p.m(U)p.r(C)p.r(C)p.m(U)p.r(A)p.r(C)p.r(C)p.r(U)p.r(U)p.r(T)p.r(T)}|RNA2{r(A)p.r(A)p.r(G)p.r(G)p.m(U)p.r(A)p.r(G)p.r(G)p.r(A)p.r(G)p.r(A)p.r(G)p.r(C)p.r(U)p.r(C)p.r(U)p.r(C)p.r(G)p.r(G)p.r(T)p.r(T)}$$$RNA1{StrandType:ss}|RNA2{StrandType:as}$	72%
RNA1{r(A)p.r(A)p.r(C)p.r(C)p.r(C)p.r(A)p.r(C)p.r(C)p.r(A)p.r(C)p.r(A)p.r(G)p.r(C)p.m(U)p.r(A)p.r(G)p.r(A)p.r(A)p.r(C)p.r(U)p.r(U)}|RNA2{r(A)p.r(A)p.r(G)p.r(U)p.r(U)p.r(C)p.r(U)p.r(A)p.r(G)p.r(C)p.r(U)p.r(G)p.r(U)p.r(G)p.r(G)p.r(U)p.r(G)p.r(G)p.r(G)p.r(U)p.r(U)}$$$RNA1{StrandType:ss}|RNA2{StrandType:as}$	84% and 82%
RNA1{r(G)p.[hna](A)p.r(C)p.r(G)p.r(U)p.r(A)p.r(A)p.[hna](A)p.r(C)p.r(G)p.r(G)p.r(C)p.r(C)p.[hna](A)p.r(C)p.r(A)p.[hna](A)p.r(G)p.r(U)p.r(U)p.r(C)}|RNA2{r(A)p.r(C)p.r(U)p.r(U)p.r(G)p.r(U)p.r(G)p.r(G)p.r(C)p.r(C)p.r(G)p.r(U)p.r(U)p.r(U)p.r(A)p.r(C)p.r(G)p.r(U)p.[lna](C)p.[lna](G)p.r(C)}$$$RNA1{StrandType:ss}|RNA2{StrandType:as}$	79.1%
RNA1{m(G)p.r(C)p.m(U)p.r(G)p.m(A)p.r(G)p.m(G)p.r(A)p.m(A)p.r(A)p.m(G)p.r(G)p.m(G)p.r(A)p.m(C)p.r(A)p.m(U)p.r(C)p.m(U)p.r(T)p.r(T)}|RNA2{r(A)p.r(G)p.r(A)p.r(U)p.r(G)p.r(U)p.r(C)p.r(C)p.r(C)p.r(U)p.r(U)p.r(U)p.r(C)p.r(C)p.r(U)p.r(C)p.r(A)p.r(G)p.r(C)p.r(T)p.r(T)}$$$RNA1{StrandType:ss}|RNA2{StrandType:as}$	61%
RNA1{r(G)p.r(U)p.r(A)p.r(U)p.r(G)p.r(A)p.r(C)p.r(C)p.r(G)p.r(A)p.r(C)p.r(U)p.r(A)p.r(C)p.r(G)p.r(C)p.r(G)p.r(U)p.r(A)p.r(T)p.r(T)}|RNA2{r(U)p.r(U)p.r(C)p.r(A)p.[una](G)p.r(U)p.r(G)p.r(U)p.r(G)p.r(A)p.r(U)p.r(G)p.r(A)p.r(C)p.r(A)p.r(C)p.r(U)p.r(U)p.r(G)p.r(T)p.r(T)}$$$RNA1{StrandType:ss}|RNA2{StrandType:as}$	92%
RNA1{r(A)p.r(A)p.r(C)p.r(C)p.r(C)p.r(A)p.r(C)p.r(C)p.r(A)p.r(C)p.r(A)p.r(G)p.r(C)p.m(U)p.m(A)p.r(G)p.r(A)p.r(A)p.r(C)p.m(U)p.m(U)}|RNA2{r(A)p.r(A)p.r(G)p.m(U)p.m(U)p.r(C)p.m(U)p.m(A)p.r(G)p.r(C)p.m(U)p.r(G)p.m(U)p.r(G)p.r(G)p.m(U)p.r(G)p.r(G)p.r(G)p.m(U)p.m(U)}$$$RNA1{StrandType:ss}|RNA2{StrandType:as}$	24%
RNA1{[fl2r](A)p.r(A)p.[fl2r](G)p.r(G)p.[fl2r](C)p.r(C)p.[fl2r](A)p.r(A)p.[fl2r](C)p.r(C)p.[fl2r](G)p.r(A)p.[fl2r](U)p.r(A)p.[fl2r](C)p.r(U)p.[fl2r](U)p.r(C)p.[fl2r](U)p.r(T)p.r(T)}|RNA2{r(A)p.r(G)p.r(A)p.r(A)p.r(G)p.[fl2r](U)p.r(A)p.[fl2r](U)p.r(C)p.r(G)p.r(G)p.[fl2r](U)p.[fl2r](U)p.r(G)p.r(G)p.r(C)p.r(C)p.[fl2r](U)p.[fl2r](U)p.r(T)p.r(T)}$$$RNA1{StrandType:ss}|RNA2{StrandType:as}$	46%
RNA1{r(G)p.r(C)p.r(G)p.r(A)p.r(G)p.r(C)p.r(A)p.r(G)p.r(A)p.r(G)p.r(A)p.r(A)p.r(U)p.r(C)p.m(U)p.r(A)p.r(C)p.r(C)p.r(U)p.r(T)p.r(T)}|RNA2{r(A)p.r(G)p.r(G)p.m(U)p.r(A)p.r(G)p.r(A)p.r(U)p.r(U)p.r(C)p.r(U)p.r(C)p.r(U)p.r(G)p.r(C)p.r(U)p.r(C)p.r(G)p.r(C)p.r(T)p.r(T)}$$$RNA1{StrandType:ss}|RNA2{StrandType:as}$	90%
RNA1{r(U)p.r(G)p.r(A)p.r(G)p.r(A)p.r(G)p.r(A)p.r(A)p.r(A)p.r(G)p.r(C)p.r(A)p.r(C)p.r(A)p.r(G)p.r(A)p.r(A)p.r(A)p.r(A)p.d(T)p.d(T)}|RNA2{[lna](T)p.r(U)p.r(U)p.r(U)p.r(C)p.r(U)p.r(G)p.r(U)p.r(G)p.r(C)p.r(U)p.r(U)p.r(U)p.r(C)p.r(U)p.r(C)p.r(U)p.r(C)p.r(A)p.[lna](T)p.[lna](T)}$$$RNA1{StrandType:ss}|RNA2{StrandType:as}$	34%
RNA1{r(U)p.r(C)p.m(U)p.r(A)p.r(C)p.r(A)p.r(C)p.r(C)p.r(G)p.r(C)p.r(G)p.r(C)p.r(C)p.r(C)p.r(C)p.r(C)p.r(C)p.r(U)p.r(C)p.r(T)p.r(T)}|RNA2{r(G)p.r(A)p.r(G)p.r(G)p.r(G)p.r(G)p.r(G)p.r(G)p.r(C)p.r(G)p.r(C)p.r(G)p.r(G)p.r(U)p.r(G)p.m(U)p.r(A)p.r(G)p.r(A)p.r(T)p.r(T)}$$$RNA1{StrandType:ss}|RNA2{StrandType:as}$	79%
